Bridge positions count the residues as written; N and C are the ends. Ends that are not written are not given here. Peptide text beside a SMILES is read from it.
Assays:
HLA DRB1*0101 = molecular target: T1, HLA DRB1*0101 (Homo sapiens, UniProt P01903+P01911, A100R/D57E/F55L/F60I/F76Y/I96L/L162R/M171V/P40L/Q125E/R42F/V115G/Y59C); assay: Class II HLA competition binding assay; details: short assay peptides (Cys7 replaced with Ser); competition with biotinylated allele-specific peptide, soluble HLA DR, overnight, time-resolved fluorescence, triplicate, seven concentrations; unit not given
T1 construct: incubated overnight to equilibrium with a soluble HLA DR molecule; purchased Benaroya Research Institute, Seattle, Washington
Protocol: (§1) The class II HLA binding assays performed for these studies measure the binding affinity of a target peptide to HLA DRB1*0101, *0301, *0401, *0701, *0901, *1101, *1301, and *1501 in a standardized competition assay. This assay was originally described by [Steere et al. (2006)] and adapted by EpiVax. Previous publications have described the assay in detail ([McMurry et al., 2007]; [Ardito et al., 2011]). Briefly, unlabeled test peptides are incubated overnight to equilibrium with a soluble HLA DR molecule (Benaroya Research Institute, Seattle, Washington) and a biotinylated, allele-specific competitor peptide. The binding reaction is then neutralized, and peptide–HLA complexes are transferred to a 96-well plate coated with the pan-HLA DR antibody, clone L243 (BioLegend), and incubated overnight. The following day, Europium-labeled streptavidin (PerkinElmer, Waltham, MA) is added to identify the peptide–HLA complexes. An indirect measure of binding is determined by time-resolved fluorescence. Each peptide–HLA binding reaction is evaluated in triplicate over a range of seven concentrations. The percent inhibition values at seven distinct concentrations are used to calculate the IC50 value, defined as the concentration at which the test peptide inhibits 50% of the labeled competitor peptide.
(§2) Peptides that bind to the HLA at an IC50 value of 100 nM or less are considered very high-affinity binders. Peptides that bind at IC50 values ranging from 100 nM to 1,000 nM are considered high-affinity binders. Peptides that bind at IC50 values ranging from 1,000 nM to 10,000 nM are considered moderate-affinity binders. Peptides that bind at IC50 values ranging from 10,000 nM to 100,000 nM are considered low-affinity binders, and those with IC50 values ranging from 100,000 nM to 1,000,000 nM are considered negligible-affinity binders. […] We note that these concentrations are specific for the in vitro HLA-binding assay and are used to compare the relative binding affinities of the impurity sequences to the API and independent from the peptide concentrations described for the in vitro T-cell assays described below.

HLA DRB1*0301 = molecular target: T2, HLA DRB1*0301 (Homo sapiens, UniProt P01903+P01911, A100K/A102G/A103R/A169T/F55Y/I96L/K41T/L162R/M171V/P40S/Q125H/Q178H/Q39Y/R42S/S66N/T106N/T262R/W38E/Y61H); assay: Class II HLA competition binding assay; details: short assay peptides (Cys7 replaced with Ser); competition with biotinylated allele-specific peptide, soluble HLA DR, overnight, time-resolved fluorescence, triplicate, seven concentrations; unit not given
T2 construct: incubated overnight to equilibrium with a soluble HLA DR molecule; purchased Benaroya Research Institute, Seattle, Washington
Protocol: as §1, §2

HLA DRB1*0401 = molecular target: T3, HLA DRB1*0401 (Homo sapiens, UniProt P01903+P01911, A100K/A169T/F76Y/I96L/K127E/L162R/M171V/N62H/P40V/Q125Y/R42H/S133A/S149N/S66Y/V115G/V209L/W38E); assay: Class II HLA competition binding assay; details: short assay peptides (Cys7 replaced with Ser); competition with biotinylated allele-specific peptide, soluble HLA DR, overnight, time-resolved fluorescence, triplicate, seven concentrations
T3 construct: incubated overnight to equilibrium with a soluble HLA DR molecule; purchased Benaroya Research Institute, Seattle, Washington
Protocol: as §1, §2

HLA DRB1*0901 = HLA DRB1*0901 (Homo sapiens, UniProt P01903+P01911, A100R/A103E/D57H/D86V/F55Y/F60I/F76Y/I96F/K127E/L162R/M171V/P40D/Q125H/Q99R/R33Q/R42F/S133A/S66N/T210M/V115G/W38K/Y107V/Y59G/Y89S); assay: Class II HLA competition binding assay; details: short assay peptides (Cys7 replaced with Ser); competition with biotinylated allele-specific peptide, soluble HLA DR, overnight, time-resolved fluorescence, triplicate, seven concentrations
Protocol: as §1, §2

HLA DRB1*1101 = molecular target: T4, HLA DRB1*1101 (Homo sapiens, UniProt P01903+P01911, A100R/A169T/A87E/I96F/K41T/L162R/M171V/P40S/Q125H/Q178H/Q39Y/Q99D/R42S/S66Y/T262R/V115G/W38E); assay: Class II HLA competition binding assay; details: class by IC50; short assay peptides
T4 construct: incubated overnight to equilibrium with a soluble HLA DR molecule; purchased Benaroya Research Institute, Seattle, Washington
Protocol: as §1, §2

HLA DRB1*1501 = molecular target: T5, HLA DRB1*1501 (Homo sapiens, UniProt P01903+P01911); assay: Class II HLA competition binding assay; details: class by IC50; short assay peptides
T5 construct: incubated overnight to equilibrium with a soluble HLA DR molecule; purchased Benaroya Research Institute, Seattle, Washington
Protocol: as §1, §2

HLA DRB1*1301 = molecular target: T6, HLA DRB1*1301 (Homo sapiens, UniProt P01903+P01911, A100E/A169T/K41T/L162R/M171V/P40S/Q125H/Q178H/Q39Y/Q99D/R42S/S66N/T262R/W38E/Y61H); assay: Class II HLA competition binding assay; details: short assay peptides (Cys7 replaced with Ser); competition with biotinylated allele-specific peptide, soluble HLA DR, overnight, time-resolved fluorescence, triplicate, seven concentrations; unit not given
T6 construct: incubated overnight to equilibrium with a soluble HLA DR molecule; purchased Benaroya Research Institute, Seattle, Washington
Protocol: as §1, §2

human donor PBMCs = assay: In vitro immunogenicity protocol (IVIP) naïve T-cell assay, IFNγ FluoroSpot; format: cell-based; details: individual full-length peptides at 20 μg/mL, 14 days, then 48 h IFNγ FluoroSpot; 16 donors; positive: SFC > 50 per 10^6, SI ≥ 2, p < 0.05 vs medium
Protocol: To improve the sensitivity of the T-cell assays, fresh (not frozen) blood samples were obtained from human blood donors for the T-cell assays (internal observations). Specifically, PBMCs were isolated from leukocyte reduction filters obtained from the Rhode Island Blood Center (RIBC) in Providence, RI. To confirm the sufficient breadth of HLA coverage in the donor cohort, high-resolution (4-digit) class II HLA haplotyping of donors was performed at the Transplant Immunology Laboratory at Hartford Hospital in Hartford, CT, using the sequence-specific oligonucleotide method (SSP-PCR). […] supertype alleles were expressed by the donor PBMCs used in the assays reported here (HLA DRB1*0301, *0401, *0701, *1101, *1301, and *1501). The HLA identified for the cohort of subjects used in this study is representative of 81.81% of the HLA alleles expressed by the global population. Forty percent of the donors were female and 60% of the donors were male, and their ages ranged from 17 to 83 years. Donor cohort demographic information and HLA types for each donor are provided in Supplementary Figure S1. To measure the naïve T-cell response to salmon calcitonin and impurity peptides, cells were plated at a density of 2.5 × 10^5 cells per well in 96-well U-bottom cell plates in RPMI 1640 cell culture medium supplemented with IL-2 (10 ng/mL) and IL-7 (20 ng/mL) (Gibco). The cells were incubated with […]®, or a synthetic salmon calcitonin peptide, or individual peptide impurities, at a concentration of 20 μg/mL for 14 days at 37°C/5% CO2, with medium exchanges that include cytokine support (IL-2 and IL-7) on days 4, 7, and 11. A concentration of 20 μg/mL (5.8 μM) was the dose selected for the SCT API and the four selected impurities, following a dose-ranging study performed with […]® to determine the maximum dose at which a T-cell response could be observed with no observed toxicity to the cells. The dose-ranging study was performed following the same protocol as described above. The following control antigens were used in the T-cell assays for each of the PBMC samples: positive controls, keyhole limpet hemocyanin (KLH; Thermo Fisher), and the antigenic peptide pool CEFT (ImmunoSpot). In addition, human serum albumin (HSA; Sigma-Aldrich) was used as a negative control antigen, and phytohemagglutinin (PHA; Thermo Fisher), a T-cell mitogen, was used to confirm T-cell functionality. […] Responses were considered positive if (1) the number of spots was at least twice the background (stimulation index [SI] ≥ 2); (2) there were greater than 50 spot-forming cells (SFCs) per 1.0 × 10^6 PBMCs; and (3) responses were statistically different from the media (Student's t-test). Each of the test articles (SCT API, RLD, or impurity peptide) and each of the positive and negative controls were evaluated in nine replicate wells containing donor PBMCs. Following the 14-day incubation, cells in the nine replicate wells were collected, pooled by the treatment condition, and re-plated in triplicate on a precoated anti-human IFNγ FluoroSpot plate (Mabtech) at a concentration of 1.0 × 10^5 cells per well in the presence of an appropriate test article or control reagent in supplemented RPMI 1640 culture medium. The FluoroSpot plates were incubated for 48 h at 37°C/5% CO2. After 48 h, FluoroSpot plates were developed according to the manufacturer's directions. Spots were counted on an iSpot Spectrum FluoroSpot reading system (AID, Strassberg, Germany) using software 7.0, build 14790. Fluorophore-specific spot parameters were defined using the spot size, spot intensity, and spot gradient. A spot separation algorithm was applied for optimal spot detection. Analysis and counting of spots were performed by unbiased experts at ZellNet Consulting, Inc. (Fort Lee, NJ).

Row | Molecule | IC50, HLA DRB1*0101 (HLA DRB1*0101) | IC50, HLA DRB1*0301 (HLA DRB1*0301) | IC50, HLA DRB1*0401 (HLA DRB1*0401) | IC50, HLA DRB1*0901 (HLA DRB1*0901) | binding affinity class, HLA DRB1*1101 (HLA DRB1*1101) | binding affinity class, HLA DRB1*1501 (HLA DRB1*1501) | IC50, HLA DRB1*1301 (HLA DRB1*1301) | Percentage of Responding Donors (human donor PBMCs) [%] | Responding Donors (human donor PBMCs)
1 | CC(C)C[C@H](NC(=O)[C@H](CCCCN)NC(=O)[C@@H](N)Cc1c[nH]cn1)C(=O)N[C@@H](CCC(N)=O)C(=O)N[C@H](C(=O)N[C@@H](Cc1ccc(O)cc1)C(=O)N1CCC[C@H]1C(=O)N[C@@H](CCCNC(=N)N)C(=O)N[C@H](C(=O)N[C@H](C(=O)NCC(=O)N[C@@H](CO)C(=O)NCC(=O)N[C@H](C(=O)O)[C@@H](C)O)[C@@H](C)O)[C@@H](C)O)[C@@H](C)O [DES-ASN26_SCT(17-31)] (H-HKLQTYPRTTGSGT-OH; N-terminus and C-terminus assumed) | no binding | no binding | no binding | no binding | negligible affinity | moderate affinity |  |  | 
2 | CC(C)C[C@H](NC(=O)[C@H](CCC(=O)O)NC(=O)[C@H](CCC(N)=O)NC(=O)[C@@H](N)CO)C(=O)N[C@@H](Cc1c[nH]cn1)C(=O)N[C@@H](CCCCN)C(=O)N[C@@H](CC(C)C)C(=O)N[C@@H](CCC(N)=O)C(=O)N[C@@H](Cc1ccc(O)cc1)C(=O)N1CCC[C@H]1C(=O)N[C@@H](CCCNC(=N)N)C(=O)N[C@H](C(=O)N[C@@H](CC(N)=O)C(=O)N[C@H](C(=O)NCC(=O)N[C@@H](CO)C(=O)NCC(=O)N[C@H](C(=O)O)[C@@H](C)O)[C@@H](C)O)[C@@H](C)O [DES-THR21_SCT(13-27)] (H-SQELHKLQYPRTNTGSGT-OH; N-terminus and C-terminus assumed) |  | did not bind | did not bind |  |  |  | did not bind |  | 
3 | CSNLSTCVLGKLSQELHKLQTYPRTNTGGSGTP (disulfide 1-7 (inferred)) [12_ENDO-GLY28_SCT, full-length SCT impurity, insertion of glycine at position 28] |  |  |  |  |  |  |  | 63 | 10
4 | CSNLSTCVLGKLSQELH (Ac-K) LQTYPRTNTGSGTP (disulfide) [06-LYS-AC18_SCT_18X, full-length SCT impurity, acetylation of lysine 18] |  |  |  |  |  |  |  | 56 | 9

From paper PMC11341359, “Assessing the immunogenicity risk of salmon calcitonin peptide impurities using in silico and in vitro methods” (Frontiers in Pharmacology, 2024)
